Experimental data from US6803479B2, “Reagents and method for spatio-temporal control of gene expression by illumination” (University of Maryland Biotechnology Institute, priority 2001, dated 2004).
Values after ≈ are worked out from the molar mass of the structure shown. “Also recorded” adds a separate entry of the source.

Tests used:
[1] = system: ecdysone receptor; settings: cited from earlier work
[2] = Aqueous solubility; format: physicochemical; settings: aqueous KCl/HEPES buffer, 100 mM KCl, 10 mM K · HEPES, pH 7.4
[3] = system: NIH3T3-ER fibroblasts; test: Toxicity in cell culture (CyQuant DNA quantification); format: cell-based; settings: 48 hours
Description: Cellular toxicity of NSE-1 was tested in cell culture. NIH3T3-ER fibroblasts (Stratagene, La Jolla, Calif.) were seeded into 96-well plates, allowed to attach for 24 hours in DMEM supplemented with 10% v/v fetal bovine serium (FBS). The medium was then replaced with DMEM-10 FBS containing ecdysoid drugs or solvent vehicle, and the cells were allowed to grow for 48 hours, at the end of which the cells were lysed and the amount of DNA in each well quantified through the CyQuant assay (Molecular Probes, Inc. Eugene, Oreg.).
Cellular toxicity of NSE-1 was tested in cell culture. NIH3T3-ER fibroblasts (Stratagene) were seeded into 96-well plates, allowed to attach for 24 hours in DMEM supplemented with 10% v/v fetal bovine serum (FBS). The medium was then replaced with DMEM-10% FBS containing ecdysoid drugs or solvent vehicle. Ethanol and DMSO were vehicle controls for ponasterone A and NSE-1, respectively. The cells were allowed to grow for 48 hours, at the end of which the cells were permeabilized and the amount of DNA in each well quantified with the CyQuant assay (Molecular Probes). […] The data are summarized in FIG. 1 (each measurement is the mean of 6 wells).

[4] = system: mice; test: Toxicity in animals (intraperitoneal injections); format: in vivo; settings: 8 mice, 32.5 mg/ml suspension, six 200-μl aliquots at 12-hour intervals
Description: NSE-1 was suspended (32.5 mg/ml) in carrier vehicle consisting of 15% w/v Pluronic F127 surfactant (BASF Corp., Wyandotte, Mich.) and 3% v/v dimethylsulfoxide in phosphate buffered saline (PBS, pH 7). […] These observations give at least preliminary data showing that NSE-1 is not acutely toxic to mammals.
NSE-1 was suspended (32.5 mg/ml) in vehicle consisting of 15% w/v Pluronic F127 surfactant (BASF Corp., Wyandotte, Mich.) and 3% v/v dimethylsulfoxide in phosphate buffered saline (PBS, pH 7).

[5] = system: EGFP reporter gene under ecdysone promoter control in NIH3T3-ER cells; test: Induction of reporter gene expression in transiently-transfected cells; format: cell-based; settings: 30 μM, 48 hours, single-cell microfluorimetry, NIH3T3-ER cells with pEGSH-EGFP
Description: NIH3T3-ER cells were transiently transfected with a plasmid pEGSH-GFP carrying the reporter eGFP gene under ecdysone promoter control. The transfected cells were treated with 10 μM ponasterone A, or 30 μM NSE-1, or plain medium for 48 hours and then screened for induction of eGFP expression by single-cell microfluorimetry.
NIH3T3-ER cells, in which expression of a modified ecdysone receptor and the retinoid X co-receptor are driven by the CMV promoter, were transiently transfected with the pEGSH-EGFP plasmid using FuGene 6 transfection reagent. The transfected cells were treated with 30 μM NSE-1 or vehicle for 48 hours and then screened for induction of EGFP expression by single-cell microfluorimetry.

[6] = system: EGFP-Kir2.1 fusion protein under ecdysone promoter control (VgEcR/RXR); test: Induction of reporter genes in primary rat anterior pituitary cells after adenovirus-mediated gene transfer; format: cell-based; settings: 24 hours, single-cell microfluorimetry
From the text: Anterior pituitary glands were removed from female Sprague-Dawley rats, enzymatically dissociated, and plated onto No. 1 polylysine-coated glass coverslips for culturing as previously described (Ho et al. 1995). The cells were doubly infected with one adenovirus (AdVgRXR) that allows constitutive expression of a modified ecdysone receptor (VgEcR) and the retinoid X receptor (RXR) and a second adenovirus (AdGFIRK) that places under ecdysone promoter control the expression of a fusion protein between EGFP and a potassium channel of the inward rectifier family (Kir2.1). For infection, the adenoviruses were applied at 200 pfu's per cell in infection medium for 3-5 hours. The cells were then allowed to recover for 24 hours before being treated with ecdysoids (ponasterone A, NSE-1) or solvent vehicle for 24 hours.
After induction, cells were then randomly chosen through a phase-contrast view and EGFP expression in each chosen cell was monitored by single-cell microfluorimetry. Because the EGFP-Kir2.1 fusion protein should be targeted to the plasma membrane, we expect its presence in the plasma membrane as well as in the Golgi-as the images in FIG. 5 indeed illustrate. A quantitative summary of the microfluorimetric data is shown in FIG. 6 (note break in y-axis scale; N shown at the base of each bar). […]

[7] = system: ecdysone receptor; test: Activation of the ecdysone-regulable gene expression system; format: cell-based, D. melanogaster
From the text: The ecydysone-regulable gene expression system relies on a recombinant ecdysone receptor (VgEcR), which is an N-terminal truncation of the natural ecdysone receptor from D. melanogaster fused to the activation domain of VP16 from HSV; VgEcR also bears 3 point mutations in the P box of the DNA-binding domain of EcR to resemble that of the glucocorticoid receptor (GR) to allow recognition of a synthetic ecdysone-response element (E/GRE), which consists of inverted half-site recognition elements for the retinoid X receptor (RXR) and GR DNA-binding domains. The hybrid E/GRE sequence is designed to evade recognition by any endogenous nuclear receptors. With RXR, the vertebrate homologue of Drosophila ultraspiracle (Yao et al. 1992), VgEcR forms a heterodimer that binds to E/GRE and initiates transcription. The ecdysone-inducible expression system has very low basal expression (No et al. 1996), because the presence of ecdysoid hormones is obligatory for receptor heterodimerization and DNA binding (Yao et al. 1993). Finally, ecdysoid hormones have no known corresponding bioactivity in vertebrates, presumably because there are no processes homologous to molting.
That these ecdysone analogues are steroids presents the same chemical obstacle to caging as did mifepristone. Fortunately, however, members of the bisacylhydrazine family are potent activators of the ecdysone receptor, and they are accessible by facile organic synthetic routes. As shown in Preliminary Studies, we have successfully synthesized a non-steroidal ecdysoid (NSE) from this class of compounds. […] Furthermore, because non-steroidal mimics of ecdysoid molting hormone have been of great interest to the agrichemical business, the acute toxicity, mutagenicity, carcinogenicity, and teratogenicity of the bisacylhydrazine family of NSEs have been extensively tested since the compounds were serendipitously discovered as ecdysone mimetics in 1983 (see Dhadialla et al. 1998 and references therein).

SMILES	activation of the ecdysone receptor [1]	solubility [2]	growth capacity of the cells (amount of DNA, CyQuant) ([3]; 10 μM)	growth capacity of the cells (amount of DNA, CyQuant) ([3]; 30 μM)	growth capacity of the cells (amount of DNA, CyQuant) ([3]; 100 μM)	signs of intoxication [4]	induction of EGFP expression [5]	induction of expression of the EGFP-Kir2.1 fusion protein [6]	activity in inducing expression of reporter genes under ecdysone promoter control, relative to ponasterone A [7]	concentrations required for activating the ecdysone system [7]
CC(C)(O)CC[C@@H](O)[C@](C)(O)[C@H]1CC[C@@]2(O)C3=CC(=O)[C@@H]4C[C@@H](O)[C@@H](O)C[C@]4(C)[C@H]3CC[C@]12C [20-hydroxy-ecdysone]	moderately activated									
CCc1c(OC)cccc1C(=O)NN(C(=O)c1cc(C)cc(C)c1)C(C)(C)C [NSE-1, 1-(3,5-dimethylbenzoyl)-1-tert-butyl-2-(2-ethyl-3-methoxybenzoyl)hydrazine]		47 µM (≈ 18 µg/mL)	Neither Ponasterone A at 10 μM, nor NSE-1 at 10, 30 or 100 μM significantly affected the growth capacity of the cells	Neither Ponasterone A at 10 μM, nor NSE-1 at 10, 30 or 100 μM significantly affected the growth capacity of the cells	Neither Ponasterone A at 10 μM, nor NSE-1 at 10, 30 or 100 μM significantly affected the growth capacity of the cells	did not produce any signs of intoxication	efficacy of NSE-1 in inducing transgenes in cultured cell lines; also recorded: can induce EGFP reporter expression	can strongly induce expression	as active as ponasterone A	in the μM range
CC(C)CC[C@@H](O)[C@](C)(O)[C@H]1CC[C@@]2(O)C3=CC(=O)[C@@H]4C[C@@H](O)[C@@H](O)C[C@]4(C)[C@H]3CC[C@]12C [Ponasterone A, reference compound]	much more robustly activated		Neither Ponasterone A at 10 μM, nor NSE-1 at 10, 30 or 100 μM significantly affected the growth capacity of the cells					can strongly induce expression		in the μM range
CC(C)CC[C@@H](O)[C@](C)(O)[C@H]1CC[C@@]2(O)C3=CC(=O)[C@]4(O)C[C@@H](O)[C@@H](O)C[C@]4(C)[C@H]3[C@H](O)C[C@]12C [muristerone A]	much more robustly activated									
